Source: US11033539B2, “Compounds of formulas (VII), (VIII), (IX), (XI), (XII), (XIII), and (XIV) as muscarinic receptor 4(M4) antagonists for treating neurological diseases” (Neurocrine Biosciences, Inc., priority 2015, dated 2021)

Experiments:
human M2 receptor = human M2 receptor (Homo sapiens (Human), UniProt P08172); assay: Radioligand (tritiated N-methylscopolamine) binding assay, M2; settings: CHO cell membranes expressing human M2; 1.5 nM tritiated N-methylscopolamine; 90 min, 37° C.; read-out: Ki against M2 receptor (Table 21, M2)
In short: (§1)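 Membranes came from recombinant CHO cells expressing human muscarinic subtypes and were incubated with compound and [3H]NMS (1.5 nM) in HEPES/NaCl/MgCl2/EDTA buffer, pH 7.4, at 37° C for 90 min. Twelve-point dose-response (printed 10–[…]). Filter-bound radioactivity was counted and Ki values derived.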

human M5 receptor = human M5 receptor (Homo sapiens (Human), UniProt P08912); assay: Radioligand (tritiated N-methylscopolamine) binding assay, M5; settings: CHO cell membranes expressing human M5; 1.5 nM tritiated N-methylscopolamine; 90 min, 37° C.; read-out: Ki against M5 receptor (Table 21, M5)
Method: (§2) Binding affinity (Ki) of compounds was measured by inhibition of radioligand binding to membranes from CHO cells expressing human M1, M2, M3, M4 and M5 receptors. Membranes were prepared by nitrogen cavitation and differential centrifugation as previously described (Hoare et al., Mol. Pharmacol. 2003 March; 63(3): 751-65). The radioligand employed was tritiated N-methylscopolamine, used at a concentration of 1.5 nM. A dose-response of twelve concentrations of compound was used, ranging from 10 μM to […]. The assay buffer was 50 mM HEPES, 100 mM NaCl, 5 mM MgCl2, 1 mM ethylenediaminetetraacetic acid, pH-adjusted to pH 7.4. Membranes, radioligand and compound were incubated together for 90 minutes at 37° C., in a total volume of 150 μl in a 96-well plate. Receptor-bound radioligand was then collected by harvesting the assay over glass fiber filters pretreated with polyethylenimine to trap the cell membranes, using rapid vacuum filtration. Harvesting and radioactivity counting was conducted as previously described (see, e.g., Hoare et al., Mol. Pharmacol. 2003 63(3):751-65); Erratum at Mol. Pharmacol. 2005 July; 68(1): 260).

human M1 receptor = human M1 receptor (Homo sapiens (Human), UniProt P11229); assay: Radioligand (tritiated N-methylscopolamine) binding assay, M1; settings: CHO cell membranes expressing human M1; 1.5 nM tritiated N-methylscopolamine; 90 min, 37° C.; read-out: Ki against M1 receptor (Table 21, M1)
In short: as §1

human M4 receptor = human M4 receptor (Homo sapiens (Human), UniProt P08173); assay: Radioligand (tritiated N-methylscopolamine) binding assay, M4; settings: Ki against the M4 receptor; membranes from CHO cells expressing human M4; tritiated N-methylscopolamine 1.5 nM; read-out: Ki
In short: as §1

human M3 receptor = human M3 receptor (Homo sapiens (Human), UniProt P20309); assay: Radioligand (tritiated N-methylscopolamine) binding assay, M3; settings: CHO cell membranes expressing human M3; 1.5 nM tritiated N-methylscopolamine; 90 min, 37° C.; read-out: Ki against M3 receptor (Table 21, M3)
Method: as §2

human M1 receptor, sequence (P11229 whole entry): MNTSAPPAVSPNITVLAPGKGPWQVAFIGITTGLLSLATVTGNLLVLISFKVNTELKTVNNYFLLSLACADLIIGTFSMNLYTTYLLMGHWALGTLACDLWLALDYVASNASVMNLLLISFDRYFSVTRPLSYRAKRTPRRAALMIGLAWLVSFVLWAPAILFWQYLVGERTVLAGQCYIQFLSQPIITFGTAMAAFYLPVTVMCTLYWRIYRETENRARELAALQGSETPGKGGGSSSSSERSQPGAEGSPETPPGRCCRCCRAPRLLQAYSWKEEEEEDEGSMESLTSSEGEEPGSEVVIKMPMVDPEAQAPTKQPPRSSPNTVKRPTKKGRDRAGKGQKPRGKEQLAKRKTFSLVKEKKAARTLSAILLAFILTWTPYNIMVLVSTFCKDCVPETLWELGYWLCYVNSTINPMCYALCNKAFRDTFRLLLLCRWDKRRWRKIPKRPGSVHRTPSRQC
human M3 receptor, sequence (P20309 whole entry): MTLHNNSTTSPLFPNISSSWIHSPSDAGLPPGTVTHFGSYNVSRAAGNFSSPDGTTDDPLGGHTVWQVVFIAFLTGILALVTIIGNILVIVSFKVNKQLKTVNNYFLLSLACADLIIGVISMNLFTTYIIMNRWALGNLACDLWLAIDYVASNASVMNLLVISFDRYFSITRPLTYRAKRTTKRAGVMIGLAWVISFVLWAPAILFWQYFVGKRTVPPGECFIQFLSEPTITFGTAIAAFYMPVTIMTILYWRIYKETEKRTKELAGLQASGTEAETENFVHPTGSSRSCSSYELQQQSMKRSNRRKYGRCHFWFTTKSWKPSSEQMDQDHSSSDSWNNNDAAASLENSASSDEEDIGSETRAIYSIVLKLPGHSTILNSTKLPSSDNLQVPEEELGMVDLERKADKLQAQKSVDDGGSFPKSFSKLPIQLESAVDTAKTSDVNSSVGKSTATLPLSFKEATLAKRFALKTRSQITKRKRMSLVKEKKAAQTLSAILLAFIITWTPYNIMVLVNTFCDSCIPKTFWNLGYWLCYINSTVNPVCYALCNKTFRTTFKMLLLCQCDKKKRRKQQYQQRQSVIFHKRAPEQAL
human M2 receptor, sequence (P08172 whole entry): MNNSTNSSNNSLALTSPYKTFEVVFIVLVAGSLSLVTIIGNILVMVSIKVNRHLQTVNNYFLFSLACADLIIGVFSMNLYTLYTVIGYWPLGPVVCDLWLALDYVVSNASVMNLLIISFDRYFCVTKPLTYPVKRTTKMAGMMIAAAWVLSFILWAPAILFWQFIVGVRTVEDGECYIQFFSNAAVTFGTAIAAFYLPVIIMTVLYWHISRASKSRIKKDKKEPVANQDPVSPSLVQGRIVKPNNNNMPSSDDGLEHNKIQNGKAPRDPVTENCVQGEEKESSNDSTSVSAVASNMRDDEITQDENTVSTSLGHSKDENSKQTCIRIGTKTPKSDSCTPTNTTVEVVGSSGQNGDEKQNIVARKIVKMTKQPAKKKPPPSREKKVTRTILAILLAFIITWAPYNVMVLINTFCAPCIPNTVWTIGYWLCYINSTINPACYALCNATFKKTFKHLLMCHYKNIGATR
human M4 receptor, sequence (P08173 whole entry): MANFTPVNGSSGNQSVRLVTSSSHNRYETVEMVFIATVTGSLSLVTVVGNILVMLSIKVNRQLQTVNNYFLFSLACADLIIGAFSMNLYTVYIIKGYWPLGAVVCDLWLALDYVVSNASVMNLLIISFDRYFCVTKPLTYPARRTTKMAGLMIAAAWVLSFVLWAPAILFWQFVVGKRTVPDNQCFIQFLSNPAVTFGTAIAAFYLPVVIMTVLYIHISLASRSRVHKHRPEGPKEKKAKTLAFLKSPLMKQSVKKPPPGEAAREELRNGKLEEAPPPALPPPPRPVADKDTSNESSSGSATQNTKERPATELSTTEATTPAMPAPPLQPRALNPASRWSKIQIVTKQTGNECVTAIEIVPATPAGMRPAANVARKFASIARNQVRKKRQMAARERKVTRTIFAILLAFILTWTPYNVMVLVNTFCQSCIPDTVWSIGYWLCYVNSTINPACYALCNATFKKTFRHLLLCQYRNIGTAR
human M5 receptor, sequence (P08912 whole entry): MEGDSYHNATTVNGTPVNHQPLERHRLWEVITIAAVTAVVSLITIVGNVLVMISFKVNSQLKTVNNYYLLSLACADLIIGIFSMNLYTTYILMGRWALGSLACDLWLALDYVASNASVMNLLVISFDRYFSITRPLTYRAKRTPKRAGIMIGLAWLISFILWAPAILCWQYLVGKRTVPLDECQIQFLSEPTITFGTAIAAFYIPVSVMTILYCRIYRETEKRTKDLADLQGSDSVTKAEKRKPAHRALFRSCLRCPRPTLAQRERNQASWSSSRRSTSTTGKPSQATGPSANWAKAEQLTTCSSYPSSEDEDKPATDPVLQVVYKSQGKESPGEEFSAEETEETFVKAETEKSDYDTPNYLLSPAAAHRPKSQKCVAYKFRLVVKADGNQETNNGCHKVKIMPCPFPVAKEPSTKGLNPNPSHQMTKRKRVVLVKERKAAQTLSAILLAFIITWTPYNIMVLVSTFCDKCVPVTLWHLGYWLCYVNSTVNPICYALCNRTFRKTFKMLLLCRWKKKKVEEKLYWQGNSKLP

| Ki (human M2 receptor) [nM] | Ki (human M5 receptor) [nM] | Ki (human M1 receptor) [nM] | Ki (human M4 receptor) [nM] | Ki (human M3 receptor) [nM] | Compound |
| --- | --- | --- | --- | --- | --- |
| 100 to 1000 | > 1000 | > 1000 | < 10 | > 1000 | C[C@@H]1CN(c2ncc(C#N)c(N)n2)CCN1C(=O)NCCC1CCN(Cc2ccccc2)CC1 [5-1, (2R)-4-(4-amino-5-cyanopyrimidin-2-yl)-N-[2-(1-benzylpiperidin-4-yl)ethyl]-2-methylpiperazine-1-carboxamide] |
| 10 to 100 | > 1000 | > 1000 | < 10 | > 1000 | C[C@@H]1CN(c2ncc(C#N)cn2)C[C@H](C)N1C(=O)NCCC1CCN(Cc2ccc(F)cc2)CC1 [6-48, (2R,6S)-4-(5-cyanopyrimidin-2-yl)-N-(2-{1-[(4-fluorophenyl)methyl]-piperidin-4-yl}ethyl)-2,6-dimethylpiperazine-1-carboxamide] |
| 10 to 100 | 100 to 1000 | 10 to 100 | < 10 | 100 to 1000 | C[C@H]1CN(c2ccc(C(F)(F)F)cn2)CCC1C(=O)NCCC1CCN(Cc2ccccc2)CC1 (stereo partly drawn) [10-80, (3R)-N-[2-(1-benzylpiperidin-4-yl)ethyl]-3-methyl-1-[5-(trifluoromethyl)pyridin-2-yl]piperidine-4-carboxamide] |
| 100 to 1000 | > 1000 | 100 to 1000 | < 10 | > 1000 | C[C@H]1CN(C(=O)NCCC2CCN(Cc3ccccc3)CC2)CCN1c1cc(F)c(F)c(F)c1 [4-71, (3S)-N-[2-(1-benzylpiperidin-4-yl)ethyl]-3-methyl-4-(3,4,5-trifluorophenyl)piperazine-1-carboxamide] |
| < 10 | > 1000 | > 1000 | < 10 | > 1000 | C[C@@H]1CN(c2ncc(C#N)cn2)C[C@H](C)N1C(=O)NCCC1CCN(Cc2cccc(F)c2)CC1 [6-46, (2R,6S)-4-(5-cyanopyrimidin-2-yl)-N-(2-{1-[(3-fluorophenyl)-methyl]piperidin-4-yl}ethyl)-2,6-dimethylpiperazine-1-carboxamide] |
| 100 to 1000 | > 1000 | > 1000 | < 10 | > 1000 | O=C(NCCC1CCN(Cc2ccccc2)CC1)C1CCN(c2cc(F)cc(F)c2)CC1 [10-22, N-[2-(1-benzylpiperidin-4-yl)ethyl]-1-(3,5-difluorophenyl)piperidine-4-carboxamide] |
| 100 to 1000 | > 1000 | > 1000 | < 10 | > 1000 | Cc1c(C(=O)NC[C@H](O)C2CCN(Cc3ccccc3)CC2)cnc2cc(-c3cccc(C(F)(F)F)c3)nn12 [17-6, N-[(2R)-2-(1-benzylpiperidin-4-yl)-2-hydroxyethyl]-7-methyl-2-[3-(trifluoromethyl)phenyl]pyrazolo[1,5-a]pyrimidine-6-carboxamide] |
| 100 to 1000 | > 1000 | > 1000 | < 10 | > 1000 | C[C@@H]1CN(c2cc(F)cc(C#N)c2)CCN1C(=O)NCCC1CCN(Cc2ccccc2)CC1 [3-11, (2R)-N-[2-(1-benzylpiperidin-4-yl)ethyl]-4-(3-cyano-5-fluorophenyl)-2-methylpiperazine-1-carboxamide] |
| 10 to 100 | 100 to 1000 | 100 to 1000 | < 10 | 100 to 1000 | C[C@H]1CN(c2ccc(OC(F)(F)F)cc2)CCN1C(=O)NCCC1CCN(Cc2ccccc2)CC1 [4-10, (2S)-N-[2-(1-benzylpiperidin-4-yl)ethyl]-2-methyl-4-[4-(trifluoromethoxy)phenyl]piperazine-1-carboxamide] |
| 100 to 1000 | > 1000 | > 1000 | < 10 | > 1000 | Cc1c(C(=O)NCCC2CCN(Cc3ccccc3)CC2)cnc2cc(-c3cccc(OC(F)(F)F)c3)nn12 [18-16] |
| 10 to 100 | > 1000 | 100 to 1000 | < 10 | > 1000 | O=C(NCCC1CCN(Cc2ccccc2)CC1)N1CCN(c2ncc(C(F)(F)F)cn2)CC1 [5-24, N-[2-(1-benzylpiperidin-4-yl)ethyl]-4-[5-(trifluoromethyl)pyrimidin-2-yl]piperazine-1-carboxamide] |
| 10 to 100 | > 1000 | 100 to 1000 | < 10 | 100 to 1000 | C[C@@H]1CN(c2ccc(C(F)(F)F)cc2F)CCN1C(=O)NCCC1CCN(Cc2ccccc2)CC1 [4-73, (2R)-N-[2-(1-benzylpiperidin-4-yl)ethyl]-4-[2-fluoro-4-(trifluoromethyl)phenyl]-2-methylpiperazine-1-carboxamide] |
| 100 to 1000 | > 1000 | > 1000 | < 10 | > 1000 | Cc1ccc(N2CCN(C(=O)NCCC3CCN(Cc4ccccc4)CC3)[C@H](C)C2)cc1F [4-13, (2R)-N-[2-(1-benzylpiperidin-4-yl)ethyl]-4-(3-fluoro-4-methylphenyl)-2-methylpiperazine-1-carboxamide] |
| 100 to 1000 | > 1000 | > 1000 | < 10 | > 1000 | Cc1c(C(=O)NCCC2CCN(Cc3ccccc3)CC2)cnc2cc(-c3cc(F)cc(F)c3)nn12 [18-5] |
| 100 to 1000 | > 1000 | 100 to 1000 | < 10 | > 1000 | C[C@@H]1CN(c2ccc(OC(F)(F)F)cn2)CCN1C(=O)NCCC1CCN(Cc2ccccc2)CC1 [3-13, (2R)-N-[2-(1-benzylpiperidin-4-yl)ethyl]-2-methyl-4-[5-(trifluoromethoxy)pyridin-2-yl]piperazine-1-carboxamide] |
| 10 to 100 | 100 to 1000 | 100 to 1000 | < 10 | 100 to 1000 | O=C(NCCC1CCN(Cc2ccccc2)CC1)c1ccc(-c2ccc(OC(F)(F)F)cc2)cc1F [9-6, N-[2-(1-benzylpiperidin-4-yl)ethyl]-2-fluoro-4-[4-(trifluoromethoxy)phenyl]benzamide] |
| 100 to 1000 | > 1000 | > 1000 | < 10 | > 1000 | Cc1c(C(=O)NCCC2CCN(Cc3ccccc3)CC2)cnc2cc(-c3cc(F)c(F)c(F)c3)nn12 [18-17] |
| 100 to 1000 | > 1000 | 100 to 1000 | < 10 | > 1000 | C[C@@H]1CN(c2ncc(C(F)(F)F)cn2)C[C@H](C)N1C(=O)NCCC1CCN(Cc2ccccc2)CC1 [5-27, (2R,6S)-N-[2-(1-benzylpiperidin-4-yl)ethyl]-2,6-dimethyl-4-[5-(trifluoromethyl)pyrimidin-2-yl]piperazine-1-carboxamide] |
| 100 to 1000 | > 1000 | > 1000 | < 10 | > 1000 | N#Cc1cc(N2CCC(C(=O)NCCC3CCN(Cc4ccccc4)CC3)CC2)ccc1F [9-73, N-[2-(1-benzylpiperidin-4-yl)ethyl]-1-(3-cyano-4-fluorophenyl)piperidine-4-carboxamide] |
| 10 to 100 | > 1000 | 100 to 1000 | < 10 | > 1000 | C[C@@H]1CN(c2cnc(Cl)c(F)c2)C[C@H](C)N1C(=O)NCCC1CCN(Cc2ccccc2)CC1 [22-8] |

| Compound | Ki (human M2 receptor) [nM] | Ki (human M5 receptor) [nM] | Ki (human M1 receptor) [nM] | Ki (human M4 receptor) [nM] | Ki (human M3 receptor) [nM] |
| --- | --- | --- | --- | --- | --- |
| C[C@@H]1CN(c2ncc(C(F)(F)F)cn2)CCN1C(=O)NCCC1CCN(Cc2ccccc2)CC1 [3-9, (2R)-N-[2-(1-benzylpiperidin-4-yl)ethyl]-2-methyl-4-[5-(trifluoromethyl)pyrimidin-2-yl]piperazine-1-carboxamide] | 10 to 100 | > 1000 | 100 to 1000 | < 10 | 100 to 1000 |
| C[C@@H]1CN(c2ncc(C#N)cn2)C[C@H](C)N1C(=O)NCCC1CCN(Cc2ccccc2)CC1 [5-20, (2S,6R)-N-[2-(1-benzylpiperidin-4-yl)ethyl]-4-(5-cyanopyrimidin-2-yl)-2,6-dimethylpiperazine-1-carboxamide] | 100 to 1000 | > 1000 | > 1000 | < 10 | > 1000 |
| C[C@@H]1CN(c2ncc(C#N)cn2)C[C@@H](C)N1C(=O)NCCC1CCN(Cc2ccccc2)CC1 [26-2] | 100 to 1000 | > 1000 | > 1000 | < 10 | > 1000 |
